Measurements as given in ChEMBL document CHEMBL4316623, “Phosphonodiamidate prodrugs of N-alkoxy analogs of a fosmidomycin surrogate as antimalarial and antitubercular agents” (Bioorg Med Chem Lett, 2019).
Calls of active or inactive are those of the source. The rule behind the calls is not given here.

Tests used:
[1] = Oral bioavailability in human; type: ADME, organism-based; details: in vivo
[2] = Half life in human at 500 mg, po; type: ADME; details: in vivo
Plasmodium falciparum = assay: Antimalarial activity against Chloroquine-resistant Plasmodium falciparum K1 measured after 72 hrs by malstat/NBT dye based assay; type: functional, organism-based; details: K1, 72 h
[3] = system: Mycobacterium tuberculosis; assay: Antitubercular activity against Mycobacterium tuberculosis H37Rv up to 50 uM measured after 7 days by resazurin dye based colometric microtiter assay; type: functional, organism-based
[4] = Cytotoxicity against human MRC5 cells assessed as reduction in cell viability measured after 24 hrs by resazurin dye based fluorimetric assay
[5] = Selectivity index, ratio of CC50 for human MRC5 cells to IC50 for Chloroquine-resistant Plasmodium falciparum K1; type: toxicity; details: read-out: Ratio CC50/IC50

| SMILES | bioavailability [1] [%] | half-life [2] [h] | IC50 (Plasmodium falciparum) [µM] | Activity [3] | CC50 at 24 h [4] [µM] | selectivity ratio [5] |
| --- | --- | --- | --- | --- | --- | --- |
| O=CN(O)CCCP(=O)([O-])O.[Na+] [FOSMIDOMYCIN SODIUM] | 20 to 40 | 1.87 |  |  |  |  |
| CCOC(=O)[C@H](CC(C)C)NP(=O)(CCCC(=O)N(C)OCc1ccc(-c2ccccc2)cc1)N[C@@H](CC(C)C)C(=O)OCC |  |  | 5.25 | inactive | 5.94 | 1.1 |
| CCOC(=O)[C@H](CC(C)C)NP(=O)(CCCC(=O)N(C)OCCCc1ccccc1)N[C@@H](CC(C)C)C(=O)OCC |  |  | 8.93 | inactive | 23.1 | 2.6 |
| CCOC(=O)[C@H](CC(C)C)NP(=O)(CCCC(=O)N(C)OCc1ccc(Cl)cc1)N[C@@H](CC(C)C)C(=O)OCC |  |  | 7.12 | inactive | 18.4 | 2.6 |
| CCOC(=O)[C@H](CC(C)C)NP(=O)(CCCC(=O)N(C)OCCCCc1ccccc1)N[C@@H](CC(C)C)C(=O)OCC |  |  | 6.72 | inactive | 7.23 | 1.1 |
| CCOC(=O)[C@H](CC(C)C)NP(=O)(CCCC(=O)N(C)OCc1ccc2ccccc2c1)N[C@@H](CC(C)C)C(=O)OCC |  |  | 6.22 | inactive | 5.47 | 0.88 |
| CCOC(=O)[C@H](CC(C)C)NP(=O)(CCCC(=O)N(C)OCc1ccccc1)N[C@@H](CC(C)C)C(=O)OCC |  |  | 4.22 | inactive | > 64 | > 15 |
| CCOC(=O)[C@H](CC(C)C)NP(=O)(CCCC(=O)N(C)O)N[C@@H](CC(C)C)C(=O)OCC |  |  | 4.83 | inactive | > 64 | > 20 |
| CCOC(=O)[C@H](CC(C)C)NP(=O)(CCCC(=O)N(C)OCc1ccc(C(C)C)cc1)N[C@@H](CC(C)C)C(=O)OCC |  |  | 5.28 | inactive | 7.22 | 1.4 |
